# Values quoted from earlier work as cited in patent US20240286999A1, “AZABICYCLO[3.1.0]HEXANE COMPOUND” (OTSUKA PHARMACEUTICAL CO., LTD., priority 2021, published 2024).
# What was measured:
# [1] = tested on: serotonin reuptake (5-HT); details: relative to NE reuptake
# [2] = tested on: norepinephrine reuptake (NE); details: ranking among NE, DA and 5-HT reuptake
# [3] = tested on: dopamine reuptake (DA); details: relative to NE reuptake
compound,measurement,setting,value
"c1ccc2cc([C@]34CNC[C@H]3C4)ccc2c1 [(1R,5S)-1-(naphthalen-2-yl)-3-azabicyclo[3.1.0]hexane]",effectiveness against serotonin reuptake (5-HT) relative to norepinephrine reuptake,[1],one-fourteenth as effective
same,effectiveness against norepinephrine reuptake (NE),[2],most effective
same,effectiveness against dopamine reuptake (DA) relative to norepinephrine reuptake,[3],one-sixth as effective
